In US6514686B2, “Method and composition for modulating amyloidosis” (The University of British Columbia, priority 1997, dated 2003):

Experiments:
MDR1 = conditions: cited from earlier work
[1] = test system: Aβ secretion in K269sw cells transfected with human pHaMDR1 construct; experiment: Aβ secretion from K269sw cells transiently transfected with pHaMDR1 (W0-2 western blot); assay type: cell-based; conditions: RU49953 0.01-1.0 μM, fifteen minutes; FIG. 12
Method: K269sw cells were cultured in 20 mm Falcon dishes in DMEM containing 10% FBS, and […] geneticin (GIBCO) to about 50% confluence and transiently transfected with the human pHaMDR1 construct using the calcium-phosphate precipitation technique as described above. Cells were replated at a density of 2.0×10^6 cells/dish 8 hours post-transfection on 10 cm petri dishes as described above. To assay for transfection efficiency, the β-gal gene was also co-transfected into the cells. β-gal staining was performed to determine the percentage of cells within each dish which were successfully transfected with the cDNA.
Exposures were performed without resuspending the cells. 10 mL of DMEM containing either control (DMSO), PMA (0.1 μM), or RU486 (0.001 μM, 0.01 μM, 0.1 μM, 1.0 μM), were prepared. DMSO concentrations in the medium were normalized to 0.01% (v/v). The supplemented medium was aspirated and 1 mL of the appropriate medium was added to the cells. […] 5 μL from each sample was collected for protein quantification. […]
SDS-PAGE was used to resolve secreted protein on a 16.5% tris-tricine polyacrylamide gel. […] Aβ was visualized using ECL and quantitation was performed as previously described. […]
Exposures were performed without resuspending the cells. […] 5 μL from each sample was collected for protein quantification. […]

CC#C[C@]1(O)CC[C@H]2[C@@H]3CCC4=CC(=O)CCC4=C3[C@@H](c3ccc(N(C)C)cc3)C[C@@]21C [RU49953, 17β-hydroxy-11β, 17α-[4-dimethylaminophenyl]-17α prop-1-ynyl estra-4, 9 dien-3 one]
binding to and block of MDR1 mediated efflux (MDR1): bind to and block | effect on Aβ secretion [1]: reduces Aβ secretion in fifteen minutes in a dose-dependent manner
